Measurements: patent publication US20070092577A1, “Dietary calcium for reducing the production of reactive oxygen species” (University of Tennessee Research Foundation, priority 2005, published 2007)

What was measured:
[1] = tested on: IL-6; assay: IL-6 expression in differentiated 3T3-L1 adipocytes; assay type: cell-based, mouse; conditions: for effect on IL-6 expression: 10 nmol/L, 48 h, adipocytes cultured alone
Description: 3T3-L1 pre-adipocytes were incubated at a density of 8000 cells/cm^2 (10 cm^2 dish) and grown in Dulbecco's modified Eagle's medium (DMEM) containing 10% FBS and antibiotics (adipocyte medium) at 37° C. in 5% CO2 in air. Confluent pre-adipocytes were induced to differentiate with a standard differentiation medium consisting of DMEM-F10 (1:1, vol/vol) medium supplemented with 1% fetal bovine serum (FBS), 1 μM dexamethasone, isobutylmethylxanthine (IBMX) (0.5 mM) and antibiotics (1% Penicillin-Streptomycin). Pre-adipocytes were maintained in this differentiation medium for 3 days and subsequently cultured in adipocyte medium. Cultures were re-fed every 2-3 days to allow 90% cells to reach fully differentiation before conducting chemical treatment.
Cells were incubated in serum free medium overnight before chemical treatment. Chemicals were freshly diluted in adipocyte medium before treatment. […] Cell viability was measured via trypan blue exclusion.
Adipocyte and muscle 18s, TNFα, IL-6, IL-8, IL-15 and adiponectin were quantitatively measured using a smart cycler real-time PCR system (Cepheid, Sunnyvale, Calif.) with a TaqMan 1000 Core Reagent Kit (Applied Biosystems, Branchburg, N.J.). The primers and probe sets were obtained from Applied Biosystems TaqMan® Assays-on-Demand™ Gene Expression primers and probe set collection and utilized according to manufacture's instructions. Pooled adipocyte total RNA was serial-diluted in the range of 1.5625-25 ng and used to establish a standard curve; and total RNA for the unknown samples were also diluted in this range. Reactions of quantitative RT-PCR for standards and unknown samples were also performed according to the instructions of Smart Cycler System (Cepheid, Sunnyvale, Calif.) and TaqMan Real Time PCR Core Kit (Applied Biosystems, Branchburg, N.J.). The mRNA quantitation for each sample was further normalized using the corresponding 18s quantitation.
RAW 264 macrophages and 3T3-L1 preadipocytes (American Type Culture Collection) were incubated at a density of 8000 cells/cm2 (10 cm2 dish) and grown in Dulbecco's modified Eagle's medium (DMEM) containing 10% FBS and antibiotics (adipocyte medium) at 37° C. in 5% CO2 in air. […]
Adipocyte and muscle 18s, CD14, TNFα, MIP, M-CSF, IL-6 and MCP-1 were quantitatively measured using a Smart Cycler Real Time PCR System (Cepheid, Sunnyvale, Calif.) with a TaqMan 1000 Core Reagent Kit (Applied Biosystems, Branchburg, N.J.). […] Reactions of quantitative RT-PCR for standards and unknown samples were also performed according to the instructions of Smart Cycler System (Cepheid, Sunnyvale, Calif.) and TaqMan Real Time PCR Core Kit (Applied Biosystems, Branchburg, N.J.). The mRNA quantitation for each sample was further normalized using the corresponding 18s quantitation.

[2] = tested on: 3T3-L1 adipocytes; assay: DNA synthesis / cell proliferation (CyQUANT); assay type: cell-based, murine; conditions: 48 hours
Description: (§1) 3T3-L1 preadipocytes were incubated at a density of 8000 cells/cm^2 (10 cm^2 dish) and grown in Dulbecco's modified Eagle's medium (DMEM) containing 10% FBS and antibiotics (adipocyte medium) at 37° C. in 5% CO2 in air. Confluent preadipocytes were induced to differentiate with a standard differentiation medium consisting of DMEM-F 10 (1:1, vol/vol) medium supplemented with 1% FBS, 1 μM dexamethasone, IBMX (0.5 mM) and antibiotics (1% Penicillin-Streptomycin). Preadipocytes were maintained in this differentiation medium for 3 days and subsequently cultured in adipocyte medium. Cultures were re-fed every 2-3 days to allow 90% of cells to reach full differentiation before conducting chemical treatment. Chemicals were freshly diluted in adipocyte medium before treatment. Cells were washed with fresh adipocyte medium, re-fed with medium containing the different treatments, and incubated at 37° C. in 5% CO2 in air before analysis. Cell viability was measured via trypan blue exclusion. Cells were plated in DMEM with different treatment in duplicate in 96-well plates. After 48 h, a CyQUANT Cell Proliferation Kit (Molecular Probes, Eugene, Oreg.) was used following the manufacturer's protocol a microplate fluorometer (Packard Instrument Company, Inc., Downers Grove, Ill.) was used to measure CyQUANT fluorescence. Cell viability was determined by Trypan blue exclusion examination.

[3] = tested on: ROS production in cultured 3T3-L1 adipocytes; assay: ROS production in cultured adipocytes (H2-DCFDA); assay type: cell-based, murine; conditions: 48 hours
Description: as §1, with “exclusion. […]” for “exclusion.”, “loaded” for “plated in DMEM”, “H2-DCFDA (2 μmol/L) 30 minute before the end of the incubation period (48 h).” for “different treatment in duplicate in 96-well plates.”, “washing twice with PBS, cells were scraped and disrupted by sonication on ice (20s). Fluorescence (emission 543 nm or 527 nm) and DNA content were then measured as described previously. The intensity of fluorescence” for “48 h, a CyQUANT Cell Proliferation Kit (Molecular Probes, Eugene, Oreg.)”, “expressed as arbitary units per ng DNA.” for “used following the manufacturer's protocol a microplate fluorometer (Packard Instrument Company, Inc., Downers Grove, Ill.) was used to measure CyQUANT fluorescence. Cell viability was determined by Trypan blue exclusion examination.”

[4] = added to glucose 30 mmol/L, nifedipine 10 μmol/L

OO [H2O2, hydrogen peroxide]
increase of IL-6 expression ([1]; 100 nmol/L H2O2, 48 h, p<0.001): 167% | increase of total DNA of cultured cells ([2]; H2O2 100 nmol/L, p<0.001): 39%

C=C1/C(=C\C=C2/CCC[C@]3(C)[C@@H]([C@H](C)CCCC(C)(C)O)CC[C@@H]23)C[C@@H](O)C[C@@H]1O [calcitriol, 1, 25-Dihydroxyvitamin D]
effect on high glucose induced ROS production [3, 4]: greater stimulation of ROS production than either glucose alone or glucose plus GDP | effect on IL-6 expression [1]: markedly stimulate | effect on IL-6 expression ([1]; listed as 1α, 25-(OH)2-D3): markedly increased | effect on glucose induced DNA synthesis [2, 4]: augmented

Cc1c(C)c2c(c(C)c1O)CC[C@@](C)(CCC[C@H](C)CCC[C@H](C)CCCC(C)C)O2 [α-tocopherol]
effect on ROS production in all groups ([3]; α-tocopherol 1 μmol/L): inhibited | effect on hydrogen peroxide increased IL-6 expression ([1]; 1 μmol/L α±tocopherol plus 100 nmol/L H2O2, 48 h, p=0.016): attenuated | effect on H2O2 induced DNA synthesis ([2]; with H2O2 100 nmol/L, α-tocopherol 1 μmol/L, nifedipine 10 μmol/L): completely blocked
